# Reference: patent publication US6451814B1, “Heterocyclic β-3 adrenergic receptor agonists” (Wyeth, priority 2000, dated 2002)
# Values joined by “and” are separate entries in the source; they are usually repeats but may differ in a detail not shown here. Identical values can stand only once. Counter-ions that a name gives are not always drawn.
# Test system: not given
# Experiment: not given
# Conditions: not given
row,melting point [°C],Compound
1,68 to 70,"C=CCc1ccccc1OC[C@@H](O)CNCCc1ccc(NC2CCN(S(=O)(=O)c3ccc(N(CCCCCC)C(N)=O)cc3)CC2)cc1 [Example 110, N-[4-({4-[4-(2-{[(2S)-3-(2-allylphenoxy)-2-hydroxypropyl]amino}ethyl)anilino]-1-piperidinyl}sulfonyl)phenyl]-N-hexylurea]"
2,111 to 113,"O=C(c1n[nH]c2ccccc12)N1CCC(Nc2ccc(CCNC[C@H](O)COc3ccc(O)cc3)cc2)CC1 (as salt: salt) [Example 102, [4-(4-{2-[(2S)-2-Hydroxy-3-(4-hydroxy-phenoxy)-propylamino]-ethyl}-phenylamino)-piperidin-1-yl]-(1H-indazol-3-yl)-methanone]"
3,128 to 130,"Cc1ccsc1C(=O)N1CCC(Nc2ccc(CCNC[C@H](O)COc3cccc4[nH]c(=O)[nH]c34)cc2)CC1 (as salt: salt) [Example 101, 4-[(2S)-2-Hydroxy-3-(2-{4-[1-(3-methyl-thiophene-2-carbonyl)-piperidin-4-ylamino]-phenyl}-ethylamino)-propoxy]-1,3-dihydro-benzoimidazol-2-one]"
4,165 to 168,"CCCCCCNC(=O)Nc1ccc(S(=O)(=O)N2CCC(Nc3ccc(CCNC[C@H](O)COc4ccc(O)cc4)cc3)CC2)cc1 (as salt: hydrochloride) [Example 108, 1-Hexyl-3-{4-[4-(4-{2-[(2S)-2-hydroxy-3-(4-hydroxy-phenoxy)-propylamino]-ethyl}-phenylamino)-piperidine-1-sulfonyl]-phenyl}-urea]"
5,89 to 92,"Cc1ccc(S(=O)(=O)N2CCC(Nc3ccc(CCNC[C@H](O)COc4ccc(O)cc4)cc3)CC2)cc1 (as salt: salt) [Example 112, 4-[(2S)-2-Hydroxy-3-(2-{4-[1-(toluene-4-sulfonyl)-piperidin-4-ylamino]-phenyl}-ethylamino)-propoxy]-phenol]"
6,84 to 86,"COc1c(C(=O)N2CCC(Nc3ccc(CCNC[C@H](O)COc4ccc(O)cc4)cc3)CC2)sc2ccccc12 (as salt: salt) [Example 97, [4-(4-{2-[(2S)-2-Hydroxy-3-(4-hydroxy-phenoxy)-propylamino]-ethyl}-phenylamino)-piperidin-1-yl]-(3-methoxy-benzo[b]thiophen-2-yl)-methanone]"
7,88 to 91,"CCCCCCCCNC(=O)N1CCC(C(=O)N2CCC(Nc3ccc(CCNC[C@H](O)COc4ccc(O)cc4)cc3)CC2)CC1 (as salt: salt) [Example 92, 4-[4-(4-{2-[(2S)-2-Hydroxy-3-(4-hydroxy-phenoxy)-propylamino]-ethyl}-phenylamino)-piperidine-1-carbonyl]-piperidine-1-carboxylic Acidoctylamide]"
8,96 to 98,"COc1c(C(=O)N2CCC(Nc3ccc(CCNC[C@H](O)COc4cccc(NC(C)=O)c4)cc3)CC2)sc2ccccc12 (as salt: salt) [Example 98, N-{3-[(2S)-2-Hydroxy-3-(2-{4-[1-(3-methoxy-benzo[b]thiophene-2-carbonyl)-piperidin-4-ylamino]-phenyl}-ethylamino)-propoxy]-phenyl}-acetamide]"
9,101 to 103,"COc1ccc2[nH]c(C(=O)N3CCC(Nc4ccc(CCNCC(O)COc5ccc(O)cc5)cc4)CC3)cc2c1 (stereo not drawn) (as salt: salt) [Example 94, [4-(4-{2-[2-Hydroxy-3-(4-hydroxy-phenoxy)-propylamino]-ethyl}-phenylamino)-piperidin-1-yl]-(5-methoxy-1H-indol-2-yl)-methanone]"
10,106 to 108,"CCOC(=O)C1CCCN(C(=O)N2CCC(Nc3ccc(CCNC[C@H](O)c4ccc(O)c(NS(C)(=O)=O)c4)cc3)CC2)C1 (stereo partly drawn) (as salt: salt) [Example 78, 1-[[4-[[4-[2-[[(2R)-2-Hydroxy-2-[4-hydroxy-3-[(methylsulfonyl)amino]phenyl]ethyl]amino]ethyl]phenyl]amino]-1-piperidinyl]carbonyl]-3-piperidine Carboxylic Acid, Ethyl Ester]"
11,114 to 116,"O=C(c1cc2cc(Br)ccc2[nH]1)N1CCC(Nc2ccc(CCNC[C@H](O)COc3ccc(O)cc3)cc2)CC1 (as salt: salt) [Example 96, (5-Bromo-1H-indol-2-yl)-[4-(4-{2-[(2S)-2-hydroxy-3-(4-hydroxy-phenoxy)-propylamino]-ethyl}-phenylamino)-piperidin-1-yl]-methanone]"
12,108 to 111,"CCCCCCNC(=O)Nc1ccc(C(=O)N2CCC(Nc3ccc(CCNC[C@H](O)COc4ccc(O)cc4)cc3)CC2)cc1 [Example 93, 1-Hexyl-3-{4-[4-(4-{2-[(2S)-2-hydroxy-3-(4-hydroxy-phenoxy)-propylamino]-ethyl}-phenylamino)-piperidine-1-carbonyl]-phenyl}-urea]"

# The next lines start with the compound.
row,Compound,melting point [°C]
1,"COc1cc(OCCCOc2ccccc2)ccc1CCNC(=O)N1CCC(Nc2ccc(CCNC[C@H](O)COc3ccc(O)cc3)cc2)CC1 [Example 71, 4-(4-{2-[(2S)-2-Hydroxy-3-(4-hydroU-phenoxy)-propylamino]-ethyl}-phenylamino)-piperidine-1-carboxylic Acid {2-[2-methoxy-4-(3-phenoxy-propoxy)-phenyl]-ethyl}-amide]",67 to 69
2,"O=C(NCC(c1ccccc1)c1ccccc1)N1CCC(Nc2ccc(CCNC[C@H](O)COc3ccc(O)cc3)cc2)CC1 [Example 31, 4-(4-{2-[(2S)-2-Hydroxy-3-(4-hydroxy-phenoxy)-propylamino]-ethyl}-phenylamino)-piperidine-1-carboxylic Acid (2,2-diphenyl-ethyl)-amide]",91 to 94
3,"CCCCCCCCNC(=O)N1CCC(Nc2ccc(CCNC[C@H](O)COc3ccc(NS(C)(=O)=O)cc3)cc2)CC1 [Example 22, 4-(4-{2-[(2S)-2-Hydroxy-3-(4-methanesulfonylamino-phenoxy)-propylamino]-ethyl}-phenylamino)-piperidine-1-carboxylic Acid Octylamide]",89 to 95
4,"CCCCCCCCNC(=O)N1CCC(Nc2ccc(CCNCC(O)c3ccc(O)c(C(N)=O)c3)cc2)CC1 (stereo not drawn) (as salt: salt) [Example 7, 4-(4-{2-[2-(3-Carbamoyl-4-hydroxy-phenyl)-2-hydroxy-ethylamino]-ethyl}-phenylamino)-piperidine-1-carboxylic Acid Octylamide]",101 to 104
5,"O=C(O)COc1ccc(NC(=O)N2CCC(Nc3ccc(CCNC[C@H](O)COc4ccc(O)cc4)cc3)CC2)cc1 (as salt: salt) [Example 58, (4-{[4-(4-{2-[(2S)-2-Hydroxy-3-(4-hydroxy-phenoxy)-propylamino]-ethyl}-phenylamino)-piperidine-1-carbonyl]-amino}-phenoxy)-acetic Acid]",175
6,O=C(NC1CCCCC1)N1CCC(Nc2ccc(CCNC[C@H](O)COc3ccc(O)cc3)cc2)CC1 (as salt: salt) [Example 2],77 to 86
7,"CCCCCCCCNC(=O)N1CCC(S(=O)(=O)c2ccc(CCNC[C@H](O)COc3ccc4c(c3)OCO4)cc2)CC1 [Example 49, 4-(4-{2-[(2S)-3-(Benzo[1,3]dioxol-5-yloxy)-2-hydroxy-propylamino]-ethyl}-benzenesulfonyl)-piperidine-1-carboxylic Acid Octylamide]",84 to 86
8,CC(C)NC(=O)N1CCC(Nc2ccc(CCNC[C@H](O)COc3ccc(O)cc3)cc2)CC1 (as salt: salt) [Example 11],89 to 96
9,"CCCCCCCCNC(=O)N1CCC(N(C(C)=O)c2ccc(CCNC[C@H](O)COc3ccc(O)cc3)cc2)CC1 (as salt: salt) [Example 8, 4-[Acetyl-(4-{2-[(2S)-2-hydroxy-3-(4-hydroxy-phenoxy)-propylamino]-ethyl}-phenyl)-amino]-piperidine-1-carboxylic Acid Octylamide]",71 to 74
10,"CCNC(=O)N1CCC(Nc2ccc(CCNC[C@H](O)COc3ccc(O)cc3)cc2)CC1 (as salt: salt) [Example 10, 4-(4-{2-[(2S)-2-Hydroxy-3-(4-hydroxy-phenoxy)-propylamino]-ethyl}-phenylamino)-piperidine-1-carboxylic Acid Ethylamide]",81 to 85
11,"CCCCCCCCNC(=O)N1CCC(Nc2ccc(CCNC[C@H](O)COc3ccc(F)cc3)cc2)CC1 [Example 3, 4-(4-{2-[(2S)-3-(4-Fluoro-phenoxy)-2-hydroxy-propylamino]-ethyl}-phenylamino)-piperidine-1-carboxylic Acid Octylamide]",58 to 64
12,"CCN(CC)C(=O)N1CCC(Nc2ccc(CCNC[C@H](O)COc3ccc(O)cc3)cc2)CC1 [Example 14, 4-(4-{2-[(2S)-2-Hydroxy-3-(4-hydroxy-phenoxy)-propylamino]-ethyl}-phenylamino)-piperidine-1-carboxylic Acid Diethylamide]",61 to 65
13,"COc1cccc(CCNC(=O)N2CCC(Nc3ccc(CCNC[C@H](O)COc4ccc(O)cc4)cc3)CC2)c1 (as salt: salt) [Example 6, 4-(4-{2-[(2S)-2-Hydroxy-3-(4-hydroxy-phenoxy)-propylamino]-ethyl}-phenylamino)-piperidine-1-carboxylic Acid [2-(3-methoxy-phenyl)-ethyl]-amide]",103 to 108
14,"CCCCCCCCNC(=O)N1CCC(Nc2ccc(CCNC[C@H](O)COc3ccc(O)c(NS(C)(=O)=O)c3)cc2)CC1 (as salt: salt) [Example 66, 4-(4-{2-[(2S)-2-Hydroxy-3-(4-hydroxy-3-methanesulfonylamino-phenoxy)-propylamino]-ethyl}-phenylamino)-piperidine-1-carboxylic Acidoctylamide]",115 to 117

# Target: T1, human β3-adrenergic receptor (Homo sapiens, UniProt P13945)
# T1 construct: Full length β3 AR clones (402 amino acids) containing the last 6 amino acids of hβ3—AR are prepared; expressed in transfected cells; host or cells: CHO cells
# T1 sequence (P13945 whole entry): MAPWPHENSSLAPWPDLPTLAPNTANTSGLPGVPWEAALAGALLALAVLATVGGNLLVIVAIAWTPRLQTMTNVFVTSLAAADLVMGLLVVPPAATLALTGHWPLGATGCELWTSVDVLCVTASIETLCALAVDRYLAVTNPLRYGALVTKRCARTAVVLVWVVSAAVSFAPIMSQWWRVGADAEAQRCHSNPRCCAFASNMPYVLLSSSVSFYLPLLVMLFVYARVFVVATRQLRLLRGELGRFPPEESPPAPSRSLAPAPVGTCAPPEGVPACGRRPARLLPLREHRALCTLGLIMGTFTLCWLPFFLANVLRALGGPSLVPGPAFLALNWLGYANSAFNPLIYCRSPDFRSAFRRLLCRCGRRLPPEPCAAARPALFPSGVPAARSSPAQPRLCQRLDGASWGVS
# Experiment: cAMP response (SPA kit) in CHO cells transfected with human β3 adrenergic receptor
# Type: cell-based
# Conditions: CHO cells expressing human β3-AR; 10^-9 M to 10^-5 M; 30 min at 37° C.; cAMP by SPA; read-out: EC50(β3)
row,EC50,Compound
1,140 nM,"COc1cc(OCCCOc2ccccc2)ccc1CCNC(=O)N1CCC(Nc2ccc(CCNC[C@H](O)COc3ccc(O)cc3)cc2)CC1 [Example 71, 4-(4-{2-[(2S)-2-Hydroxy-3-(4-hydroU-phenoxy)-propylamino]-ethyl}-phenylamino)-piperidine-1-carboxylic Acid {2-[2-methoxy-4-(3-phenoxy-propoxy)-phenyl]-ethyl}-amide]"
2,136 nM and 68 nM,"O=C(NCC(c1ccccc1)c1ccccc1)N1CCC(Nc2ccc(CCNC[C@H](O)COc3ccc(O)cc3)cc2)CC1 [Example 31, 4-(4-{2-[(2S)-2-Hydroxy-3-(4-hydroxy-phenoxy)-propylamino]-ethyl}-phenylamino)-piperidine-1-carboxylic Acid (2,2-diphenyl-ethyl)-amide]"

# Same assay, conditions: maximal response of compound compared to maximal response of isoproterenol at 10^-5 M; CHO cells, human β3-AR
row,IA(β3),Compound
1,0.94,"COc1cc(OCCCOc2ccccc2)ccc1CCNC(=O)N1CCC(Nc2ccc(CCNC[C@H](O)COc3ccc(O)cc3)cc2)CC1 [Example 71, 4-(4-{2-[(2S)-2-Hydroxy-3-(4-hydroU-phenoxy)-propylamino]-ethyl}-phenylamino)-piperidine-1-carboxylic Acid {2-[2-methoxy-4-(3-phenoxy-propoxy)-phenyl]-ethyl}-amide]"
2,0.69 and 0.4,"O=C(NCC(c1ccccc1)c1ccccc1)N1CCC(Nc2ccc(CCNC[C@H](O)COc3ccc(O)cc3)cc2)CC1 [Example 31, 4-(4-{2-[(2S)-2-Hydroxy-3-(4-hydroxy-phenoxy)-propylamino]-ethyl}-phenylamino)-piperidine-1-carboxylic Acid (2,2-diphenyl-ethyl)-amide]"
